According to patent publication US12378211B2, “Carbonic anhydrase inhibitors and antibiotics against multidrug resistant bacteria” (Purdue Research Foundation, priority 2018, dated 2025):
Values after ≈ are worked out from the molar mass of the structure shown.

Legend:
Assay in all cases: MIC, broth microdilution in TSB
Format in all cases: cell-based
[1] = system: Enterococcus faecium Patient #3-1 NR-31912; conditions: Enterococcus faecium; TSB; Table 7; read-out: MIC in TSB
Procedure: (§1) The minimum inhibitory concentrations (MICs) of the compounds and control drugs were determined using the broth microdilution method, according to guidelines outlined by the Clinical and Laboratory Standards Institute (CLSI). Enterococci strains were grown aerobically overnight on tryptone soya agar plates at 37° C., afterwards a bacterial solution equivalent to 0.5 McFarland standard was prepared and diluted in tryptone soy broth (TSB) to achieve a bacterial concentration of about 5×10^5 CFU/mL and seeded in 96-well well plates. Compounds and control drugs were added in the first row of the 96-well plates and serially diluted along the plates. Plates were then incubated aerobically at 37° C. for 18-20 hours. MICs reported in Table 1 are the minimum concentration of the compounds/control drugs that could inhibit completely the visual growth of the bacteria.

[2] = system: Enterococcus fecalis Strain MMH594-NR31975; conditions: Enterococcus; TSB; Table 7; read-out: MIC in TSB
Procedure: as §1

[3] = system: Enterococcus faecalis—S613 HM-334; conditions: Enterococcus; TSB; Table 7; read-out: MIC in TSB
Procedure: as §1

[4] = system: Enterococcus fecalis Strain SF24413 NR31971; conditions: Enterococcus; TSB; Table 7; read-out: MIC in TSB
Procedure: as §1

[5] = system: Enterococcus fecalis Strain SF 28073-NR31972; conditions: Enterococcus; TSB; Table 7; read-out: MIC in TSB
Procedure: as §1

[6] = system: Enterococcus fecalis Strain SF 24397 NR31970; conditions: Enterococcus; TSB; Table 7; read-out: MIC in TSB
Procedure: as §1

[7] = system: Enterococcus faecium E417-HM-965; conditions: Enterococcus faecium, E417HM965; TSB; Table 7; read-out: MIC in TSB
Procedure: as §1

[8] = system: Enterococcus faecium Patient #2-1-NR-31909; conditions: Enterococcus faecium; TSB; Table 7; read-out: MIC in TSB
Procedure: as §1

SMILES | MIC [1] [µg/mL] | MIC [2] [µg/mL] | MIC [3] [µg/mL] | MIC [4] [µg/mL] | MIC [5] [µg/mL] | MIC [6] [µg/mL] | MIC [7] [µg/mL] | MIC [8] [µg/mL]
NS(=O)(=O)c1nnc(NC(=O)C2CCC2)s1 [CAI0018, N-(5-Sulfamoyl-1,3,4-thiadiazol-2-yl)cyclobutanecarboxamide] | 0.5 (≈ 1.91 µM) | 0.5 (≈ 1.91 µM) | 1 (≈ 3.81 µM) | 1 (≈ 3.81 µM) | 1 (≈ 3.81 µM) | 1 (≈ 3.81 µM) | 0.5 (≈ 1.91 µM) | 0.25 (≈ 0.953 µM)
NS(=O)(=O)c1nnc(NC(=O)C2CC2)s1 [CAI0020, N-(5-Sulfamoyl-1,3,4-thiadiazol-2-yl)cyclopropanecarboxamide] | 0.007 (≈ 0.0282 µM) | 0.007 (≈ 0.0282 µM) | 0.007 (≈ 0.0282 µM) | 0.015 (≈ 0.0604 µM) | 0.003 (≈ 0.0121 µM) | 0.015 (≈ 0.0604 µM) | 0.007 (≈ 0.0282 µM) | 0.001 (≈ 0.00403 µM)
NS(=O)(=O)c1nnc(NC(=O)CC2CCCC2)s1 [CAI0021, 2-Cyclopentyl-N-(5-sulfamoyl-1,3,4-thiadiazol-2-yl)acetamide] | 0.03 (≈ 0.103 µM) | 0.03 (≈ 0.103 µM) | 0.03 (≈ 0.103 µM) | 0.06 (≈ 0.207 µM) | 0.03 (≈ 0.103 µM) | 0.03 (≈ 0.103 µM) | 0.06 (≈ 0.207 µM) | 0.003 (≈ 0.0103 µM)
NS(=O)(=O)c1nnc(NC(=O)C2CCCCC2)s1 [CAI0022, N-(5-Sulfamoyl-1,3,4-thiadiazol-2-yl)cyclohexanecarboxamide] | 0.125 (≈ 0.43 µM) | 0.25 (≈ 0.861 µM) | 0.25 (≈ 0.861 µM) | 0.5 (≈ 1.72 µM) | 0.25 (≈ 0.861 µM) | 0.25 (≈ 0.861 µM) | 0.25 (≈ 0.861 µM) | 0.015 (≈ 0.0517 µM)
NS(=O)(=O)c1nnc(NC(=O)C2CCCC2)s1 [CAI0023, N-(5-Sulfamoyl-1,3,4-thiadiazol-2-yl)cyclopentanecarboxamide] | 0.25 (≈ 0.905 µM) | 0.5 (≈ 1.81 µM) | 0.5 (≈ 1.81 µM) | 0.5 (≈ 1.81 µM) | 1 (≈ 3.62 µM) | 0.5 (≈ 1.81 µM) | 0.25 (≈ 0.905 µM) | 0.06 (≈ 0.217 µM)
CC(=O)Nc1nnc(S(C)(=O)=O)s1 [CAI0025, N-(5-(Methylsulfonyl)-1,3,4-thiadiazol-2-yl)acetamide] | > 128 | > 128 | > 128 | > 128 | > 128 | > 128 | > 128 | > 128
CC(C)CC(=O)Nc1nnc(S(N)(=O)=O)s1 [CAI0026, 3-Methyl-N-(5-sulfamoyl-1,3,4-thiadiazol-2-yl)butanamide] | 0.125 (≈ 0.473 µM) | 0.25 (≈ 0.946 µM) | 0.25 (≈ 0.946 µM) | 0.25 (≈ 0.946 µM) | 0.5 (≈ 1.89 µM) | 0.25 (≈ 0.946 µM) | 0.125 (≈ 0.473 µM) | 0.003 (≈ 0.0113 µM)
CCCCCCC(=O)Nc1nnc(S(N)(=O)=O)s1 [CAI0027, N-(5-Sulfamoyl-1,3,4-thiadiazol-2-yl)heptanamide] | 0.007 (≈ 0.0239 µM) | 0.015 (≈ 0.0513 µM) | 0.007 (≈ 0.0239 µM) | 0.015 (≈ 0.0513 µM) | 0.015 (≈ 0.0513 µM) | 0.007 (≈ 0.0239 µM) | 0.015 (≈ 0.0513 µM) | 0.001 (≈ 0.00342 µM)
CC(C)(C)CC(=O)Nc1nnc(S(N)(=O)=O)s1 [CAI0028, 3,3-Dimethyl-N-(5-sulfamoyl-1,3,4-thiadiazol-2-yl)butanamide] | 0.003 (≈ 0.0108 µM) | 0.03 (≈ 0.108 µM) | 0.03 (≈ 0.108 µM) | 0.03 (≈ 0.108 µM) | 0.03 (≈ 0.108 µM) | 0.015 (≈ 0.0539 µM) | 0.015 (≈ 0.0539 µM) | 0.003 (≈ 0.0108 µM)
NS(=O)(=O)c1nnc(NC(=O)CC2CCCCC2)s1 [CAI0029, 2-Cyclohexyl-N-(5-sulfamoyl-1,3,4-thiadiazol-2-yl)acetamide] | 0.03 (≈ 0.0986 µM) | 0.015 (≈ 0.0493 µM) | 0.015 (≈ 0.0493 µM) | 0.03 (≈ 0.0986 µM) | 0.015 (≈ 0.0493 µM) | 0.007 (≈ 0.023 µM) | 0.06 (≈ 0.197 µM) | 0.001 (≈ 0.00329 µM)
